{"source": "patent US11219602B2", "about": "(VECTURA LIMITED, priority 2017, dated 2022)", "experiment": "Particle size analysis (wet analysis), Malvern Mastersizer 3000", "assay_type": "physicochemical", "conditions": "starting material before micronisation", "description": "The pump speed was set to 3000 rpm. […] The dispersed particles were added to the dispersion unit to reach an obscuration of 5-15%. […] Six replicates were performed per measurement.", "key": {"[1]": {"conditions": "listed as unmicronised glycopyrrolate"}}, "note": "Where “and” joins values, the source holds several entries; their conditions need not be identical. Identical values can stand only once.", "data": [{"molecule": "C[N+]1(C)CCC(OC(=O)C(O)(c2ccccc2)C2CCCC2)C1", "note": "(stereo not drawn) [Unmicronised glycopyrrolate, glycopyrrolate]", "values": [{"measurement": "D10", "result": 2.89, "unit": "μm"}, {"measurement": "D50", "result": 16.0, "unit": "μm"}, {"measurement": "D90", "result": 49.0, "unit": "μm"}, {"measurement": "D10", "setting": "[1]", "result": 1.09, "unit": "μm"}, {"measurement": "D50", "setting": "[1]", "result": 2.90, "unit": "μm"}, {"measurement": "D90", "setting": "[1]", "result": 10.4, "unit": "μm"}]}, {"molecule": "magnesium stearate", "values": [{"measurement": "D10", "result": "2.8 μm and 2.06 μm"}, {"measurement": "D50", "result": "8.8 μm and 6.57 μm"}, {"measurement": "D90", "result": "27.4 μm and 19.9 μm"}]}]}
